Measured values: ChEMBL document CHEMBL5052856, “Inhibitors of apol1 and methods of using same” (2021)

Biological target: Apolipoprotein L1 (Homo sapiens, UniProt O14791)
Test: Inhibition of APOL1 G1 variant in human HEK293-T-REx cells measured by Thallium assay
Type: cell-based

Row | SMILES | IC50
1 | O=C1NC[C@@H](O)[C@@H]1NC(=O)[C@H]1C[C@H](c2c(-c3ccc(F)cc3)[nH]c3c(F)cc(F)cc32)C1 | < 250 nM
2 | O=C(NC[C@H](O)C(F)(F)F)NC[C@H]1C[C@H](c2c(-c3ccc(F)cc3)[nH]c3c(F)cc(F)cc32)C1 | > 1000 nM
3 | Cn1cnc(CNC(=O)C2(C)CC(c3c(-c4ccc(F)cc4)[nH]c4c(F)cc(F)cc34)C2)c1 (stereo unspecified) | 0.25 nM
4 | O=C(NCC1(O)CCC1)C1CC(Cc2c(-c3ccc(F)cc3)[nH]c3c(F)cc(F)cc23)C1 (stereo unspecified) | > 1000 nM
5 | Cn1cncc1CNC(=O)C1CC(Cc2c(-c3ccc(F)cc3)[nH]c3c(F)cc(F)cc23)C1 (stereo unspecified) | > 1000 nM
6 | CC1(C)CC(NC(=O)NC[C@H]2C[C@H](c3c(-c4ccc(F)cc4)[nH]c4c(F)cc(F)cc43)C2)C(=O)O1 (stereo partly specified) | > 1000 nM
7 | Cc1cc(CNC(=O)C2CC(Cc3c(-c4ccc(F)cc4)[nH]c4c(F)cc(F)cc34)C2)nn1C (stereo unspecified) | > 1000 nM
8 | CC1(O)CC(NC(=O)NC[C@H]2C[C@H](c3c(-c4ccc(F)cc4)[nH]c4c(F)cc(F)cc43)C2)C1 (stereo partly specified) | > 1000 nM
9 | O=C(NCC1CCOCC1)C1CC(Cc2c(-c3ccc(F)cc3)[nH]c3c(F)cc(F)cc23)C1 (stereo unspecified) | > 1000 nM
10 | CC1(C(=O)NCCO)CC(c2c(-c3ccc(F)cc3)[nH]c3c(F)cc(F)cc23)C1 (stereo unspecified) | 0.25 nM
11 | Cc1noc(CNC(=O)C2CC(Cc3c(-c4ccc(F)cc4)[nH]c4c(F)cc(F)cc34)C2)n1 (stereo unspecified) | > 1000 nM
12 | C[C@H](O)CNC(=O)N(C)CC1CC(c2c(-c3ccc(F)cc3)[nH]c3c(F)cc(F)cc23)C1 (stereo partly specified) | > 1000 nM
13 | O=C(NCCO)C1CC(c2c(-c3ccc(F)cc3)[nH]c3c(F)cc(C(F)(F)F)cc23)C1 (stereo unspecified) | 0.25 nM
14 | O=C(Nc1ccc[nH]c1=O)C1CC(Cc2c(-c3ccc(F)cc3)[nH]c3c(F)cc(F)cc23)C1 (stereo unspecified) | > 1000 nM
15 | CC[C@@H](CO)NC(=O)NC[C@H]1C[C@H](c2c(-c3ccc(F)cc3)[nH]c3c(F)cc(F)cc32)C1 | > 1000 nM
16 | CC(C)(O)CCNC(=O)C1CC(Cc2c(-c3ccc(F)cc3)[nH]c3c(F)cc(F)cc23)C1 (stereo unspecified) | > 1000 nM
17 | Cc1ccc(CNC(=O)O[C@H]2C[C@H](c3c(-c4ccc(F)cc4)[nH]c4c(F)cc(F)cc43)C2)o1 | > 1000 nM
18 | O=C(NCc1cnco1)C1CC(Cc2c(-c3ccc(F)cc3)[nH]c3c(F)cc(F)cc23)C1 (stereo unspecified) | > 1000 nM
19 | N#CC(CO)NC(=O)C1CC(Cc2c(-c3ccc(F)cc3)[nH]c3c(F)cc(F)cc23)C1 (stereo unspecified) | > 1000 nM
20 | CN1CCN(C(=O)CNCC2CC(c3c(-c4ccc(F)cc4)[nH]c4c(F)cc(F)cc34)C2)CC1 (stereo unspecified) | > 1000 nM
21 | O=C(NCC1(O)COC1)NC[C@H]1C[C@H](c2c(-c3ccc(F)cc3)[nH]c3c(F)cc(F)cc32)C1 | > 1000 nM
22 | C[C@H](CO)N(C)C(=O)NC[C@H]1C[C@H](c2c(-c3ccc(F)cc3)[nH]c3c(F)cc(F)cc32)C1 | > 1000 nM
23 | C[C@@H](O)CNC(=O)N(C)CC1CC(c2c(-c3ccc(F)cc3)[nH]c3c(F)cc(F)cc23)C1 (stereo partly specified) | > 1000 nM
24 | O=C(NC[C@H]1CC[C@@H](CO)O1)NC[C@H]1C[C@H](c2c(-c3ccc(F)cc3)[nH]c3c(F)cc(F)cc32)C1 | > 1000 nM

Row | SMILES | IC50
25 | O=C(NC[C@H]1C[C@H](c2c(-c3ccc(F)cc3)[nH]c3c(F)cc(F)cc32)C1)NC1(CO)CC(F)(F)C1 | > 1000 nM
26 | CC1CC(NC(=O)NC[C@H]2C[C@H](c3c(-c4ccc(F)cc4)[nH]c4c(F)cc(F)cc43)C2)C(=O)O1 (stereo partly specified) | > 1000 nM
27 | CC(NC(=O)C1CC(Cc2c(-c3ccc(F)cc3)[nH]c3c(F)cc(F)cc23)C1)c1ccn(C)n1 (stereo unspecified) | > 1000 nM
28 | O=C(NC[C@H]1C[C@H](c2c(-c3ccc(F)cc3)[nH]c3c(F)cc(F)cc32)C1)N[C@H]1CC[C@@H]1O | > 1000 nM
29 | O=C1NC[C@@H](O)[C@@H]1NC(=O)[C@H]1C[C@@H](c2c(-c3ccc(F)cc3)[nH]c3c(F)cc(F)cc32)C1 | > 1000 nM
30 | O=C(CC1CC(c2c(-c3ccc(F)cc3)[nH]c3c(F)cc(F)cc23)C1)N[C@H](CO)C(F)(F)F (stereo partly specified) | > 1000 nM
31 | O=C(NCCn1cccc1)[C@H]1C[C@@H](c2c(-c3ccc(F)cc3)[nH]c3c(F)cc(F)cc32)C1 | > 1000 nM
32 | Cn1cnc(CNC(=O)O[C@H]2C[C@H](c3c(-c4ccc(F)cc4)[nH]c4c(F)cc(F)cc43)C2)c1 | > 1000 nM
33 | O=C(NCCO)C1CC(Cc2c(-c3ccc(F)cc3)[nH]c3c(F)cc(F)cc23)C1 (stereo unspecified) | 0.25 nM
34 | O=C(NCc1ccco1)O[C@H]1C[C@H](c2c(-c3ccc(F)cc3)[nH]c3c(F)cc(F)cc32)C1 | > 1000 nM
35 | O=C(NC[C@H]1C[C@H](c2c(-c3ccc(F)cc3)[nH]c3c(F)cc(F)cc32)C1)NC(CO)C(F)(F)F (stereo partly specified) | > 1000 nM
36 | C[C@@H](O)CNC(=O)C1CC(Cc2c(-c3ccc(F)cc3)[nH]c3c(F)cc(F)cc23)C1 (stereo partly specified) | > 1000 nM
37 | O=C(NCc1ccc(=O)[nH]c1)C1CC(Cc2c(-c3ccc(F)cc3)[nH]c3c(F)cc(F)cc23)C1 (stereo unspecified) | > 1000 nM
38 | CC1(C(=O)NC2(CO)CC2)CC(c2c(-c3ccc(F)cc3)[nH]c3c(F)cc(F)cc23)C1 (stereo unspecified) | < 250 nM
39 | CS(=O)(=O)CCNC(=O)C1CC(Cc2c(-c3ccc(F)cc3)[nH]c3c(F)cc(F)cc23)C1 (stereo unspecified) | > 1000 nM
40 | O=C1NCC[C@H]1NC(=O)[C@H]1C[C@@H](c2c(-c3ccc(F)cc3)[nH]c3c(F)cc(F)cc32)C1 | > 1000 nM
41 | Cn1cnc(CNC(=O)C2CC(Cc3c(-c4ccc(F)cc4)[nH]c4c(F)cc(F)cc34)C2)c1 (stereo unspecified) | > 1000 nM
42 | O=C(NC(CO)(CO)CO)O[C@H]1C[C@H](c2c(-c3ccc(F)cc3)[nH]c3c(F)cc(F)cc32)C1 | < 250 nM
43 | O=C(NCC1(CO)CC1)C1CC(Cc2c(-c3ccc(F)cc3)[nH]c3c(F)cc(F)cc23)C1 (stereo unspecified) | > 1000 nM
44 | Cc1cc(CNC(=O)O[C@H]2C[C@H](c3c(-c4ccc(F)cc4)[nH]c4c(F)cc(F)cc43)C2)on1 | > 1000 nM
45 | CC(O)C(C)NC(=O)O[C@H]1C[C@H](c2c(-c3ccc(F)cc3)[nH]c3c(F)cc(F)cc32)C1 (stereo partly specified) | > 1000 nM
46 | Cn1cnc(CNC(=O)C2(F)CC(c3c(-c4ccc(F)cc4)[nH]c4c(F)cc(F)cc34)C2)c1 (stereo unspecified) | < 250 nM
47 | O=C(CNC(=O)[C@H]1C[C@H](c2c(-c3ccc(F)cc3)[nH]c3c(F)cc(F)cc32)C1)NC[C@@H](O)C(F)(F)F | > 1000 nM
48 | O=C(NC[C@@H](O)C(F)(F)F)NC[C@H]1C[C@H](c2c(-c3ccc(F)cc3)[nH]c3c(F)cc(F)cc32)C1 (relative stereo) | > 1000 nM

The next lines start with the values.

Row | IC50 | SMILES
49 | 0.25 nM | O=C(NCC(F)F)[C@H]1C[C@@H](c2c(-c3ccc(F)cc3)[nH]c3c(F)cc(F)cc32)C1
50 | 0.25 nM | O=C(N[C@@H](CO)C(F)F)[C@H]1C[C@@H](c2c(-c3ccc(F)cc3)[nH]c3c(F)cc(F)cc32)C1
51 | > 1000 nM | O=C(NCC1CC1)O[C@H]1C[C@H](c2c(-c3ccc(F)cc3)[nH]c3c(F)cc(F)cc32)C1
52 | > 1000 nM | COC[C@H](C)NC(=O)O[C@H]1C[C@H](c2c(-c3ccc(F)cc3)[nH]c3c(F)cc(F)cc32)C1
53 | > 1000 nM | O=C(CN[C@H]1C[C@H](c2c(-c3ccc(F)cc3)[nH]c3c(F)cc(F)cc32)C1)NC1CC1
54 | 0.25 nM | O=C(NC1(CO)CCC1)[C@H]1C[C@@H](c2c(-c3ccc(F)cc3)[nH]c3c(F)cc(F)cc32)C1
55 | > 1000 nM | O=C(NC1(CO)CC1)[C@H]1C[C@@H](c2c(-c3ccc(F)cc3)[nH]c3c(F)cc(F)cc32)C1
56 | 0.25 nM | CCNC(=O)N1CC(c2c(-c3ccc(F)cc3)[nH]c3c(F)cc(F)cc23)C1
57 | > 1000 nM | NC(=O)C(CO)NC(=O)[C@H]1C[C@@H](c2c(-c3ccc(F)cc3)[nH]c3c(F)cc(F)cc32)C1 (stereo partly specified)
58 | > 1000 nM | CC[C@@H](CO)NC(=O)[C@H]1C[C@@H](c2c(-c3ccc(F)cc3)[nH]c3c(F)cc(F)cc32)C1
59 | < 250 nM | O=C(N[C@@H](CO)C(F)F)[C@H]1C[C@H](c2c(-c3ccc(F)cc3)[nH]c3c(F)cc(F)cc32)C1
60 | 0.25 nM | O=C(NCC(F)F)O[C@H]1C[C@H](c2c(-c3ccc(F)cc3)[nH]c3c(F)cc(F)cc32)C1
61 | > 1000 nM | O=C(NCC(O)CO)O[C@H]1C[C@H](c2c(-c3ccc(F)cc3)[nH]c3c(F)cc(F)cc32)C1 (stereo partly specified)
62 | > 1000 nM | C[C@@H](O)CNC(=O)NC[C@H]1C[C@H](c2c(-c3ccc(F)cc3)[nH]c3c(F)cc(F)cc32)C1
63 | 0.25 nM | O=C(NCCO)O[C@H]1C[C@H](c2c(-c3ccc(F)cc3)[nH]c3c(F)cc(F)cc32)C1
64 | > 1000 nM | CCC(O)CNC(=O)O[C@H]1C[C@H](c2c(-c3ccc(F)cc3)[nH]c3c(F)cc(F)cc32)C1 (stereo partly specified)
65 | > 1000 nM | NC(=O)CNC1CC(c2c(-c3ccc(F)cc3)[nH]c3c(F)cc(F)cc23)C1 (stereo unspecified)

Row | IC50 | SMILES
66 | > 1000 nM | CO[C@H]1C[C@@H](NC(=O)O[C@H]2C[C@H](c3c(-c4ccc(F)cc4)[nH]c4c(F)cc(F)cc43)C2)C1
67 | > 1000 nM | CON(C)C(=O)CN[C@H]1C[C@H](c2c(-c3ccc(F)cc3)[nH]c3c(F)cc(F)cc32)C1
68 | 0.25 nM | C[C@H](CO)NC(=O)O[C@H]1C[C@H](c2c(-c3ccc(F)cc3)[nH]c3c(F)cc(F)cc32)C1
69 | > 1000 nM | O=C(NC[C@H]1C[C@H](c2c(-c3ccc(F)cc3)[nH]c3c(F)cc(F)cc32)C1)N[C@H]1C[C@H](O)C1
70 | 0.25 nM | CC(CO)(CO)NC(=O)[C@H]1C[C@@H](c2c(-c3ccc(F)cc3)[nH]c3c(F)cc(F)cc32)C1
71 | > 1000 nM | CC(C)CC(NC(=O)[C@H]1C[C@@H](c2c(-c3ccc(F)cc3)[nH]c3c(F)cc(F)cc32)C1)C(N)=O (stereo partly specified)
72 | 0.25 nM | O=C(NC1CC1)O[C@H]1C[C@H](c2c(-c3ccc(F)cc3)[nH]c3c(F)cc(F)cc32)C1
73 | > 1000 nM | O=C(NC[C@H]1C[C@H](c2c(-c3ccc(F)cc3)[nH]c3c(F)cc(F)cc32)C1)NC1CC(O)C1 (stereo partly specified)
74 | > 1000 nM | C[C@H](NCC1CC(c2c(-c3ccc(F)cc3)[nH]c3c(F)cc(F)cc23)C1)C(N)=O (stereo partly specified)
75 | 0.25 nM | O=C(CC1CC(c2c(-c3ccc(F)cc3)[nH]c3c(F)cc(F)cc23)C1)NC1(CO)CC1 (stereo unspecified)
76 | > 1000 nM | O=C(N[C@H]1C[C@H](O)C1)[C@H]1C[C@@H](c2c(-c3ccc(F)cc3)[nH]c3c(F)cc(F)cc32)C1
77 | > 1000 nM | CC(O)[C@H](CO)NC(=O)[C@H]1C[C@@H](c2c(-c3ccc(F)cc3)[nH]c3c(F)cc(F)cc32)C1 (stereo partly specified)
78 | > 1000 nM | CC(C)(NCC1CC(c2c(-c3ccc(F)cc3)[nH]c3c(F)cc(F)cc23)C1)C(N)=O (stereo unspecified)
79 | > 1000 nM | O=C(NCC(O)CO)[C@H]1C[C@@H](c2c(-c3ccc(F)cc3)[nH]c3c(F)cc(F)cc32)C1 (stereo partly specified)
80 | > 1000 nM | O=C(NCC1(O)CC1)NC[C@H]1C[C@H](c2c(-c3ccc(F)cc3)[nH]c3c(F)cc(F)cc32)C1
81 | 0.25 nM | CNC(=O)CN[C@H]1C[C@H](c2c(-c3ccc(F)cc3)[nH]c3c(F)cc(F)cc32)C1
